≈ marks a conversion by molar mass, not a printed value. Read-outs that look alike come from different tables or passages of the source.
Tests used:
mGPR65 = biological target: T1, mGPR65 (Mus musculus, UniProt Q61038); assay: cAMP detection in HeLa expression cell line, mGPR65; assay type: cell-based; conditions: for activity for mGPR65 among prioritized molecules: 1.56 μM; for activity for mGPR65 among prioritized molecules / cAMP activity, mGPR65: pH 7.2; for Emax: HeLa, read-out: mGPR Max Activity %
T1 construct: expressed in transfected cells; host or cells: HeLa (ATCC CCL-2), lentiviral transduction, pLX317
T1 sequence (Q61038 whole entry): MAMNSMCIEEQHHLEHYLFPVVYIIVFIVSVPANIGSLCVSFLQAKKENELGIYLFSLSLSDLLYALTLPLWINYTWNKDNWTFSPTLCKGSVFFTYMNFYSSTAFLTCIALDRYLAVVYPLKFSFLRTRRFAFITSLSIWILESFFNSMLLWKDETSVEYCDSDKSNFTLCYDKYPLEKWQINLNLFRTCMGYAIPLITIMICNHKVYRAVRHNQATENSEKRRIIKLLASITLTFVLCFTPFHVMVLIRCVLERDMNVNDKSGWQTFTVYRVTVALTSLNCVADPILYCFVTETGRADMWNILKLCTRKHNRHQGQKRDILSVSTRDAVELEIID
Outline: (§1)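 Lentivirally transduced HeLa, V5-tagged GPCR, puromycin 3 μg/ml. 1500 cells/well, stimulation buffer pH 7.2, compound (10 mM DMSO stock), 30 min RT. Lyse, detection reagents 1 h dark RT. TR-FRET cAMP kit, ex 337, em 620/665.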

[1] = Solubility in phosphate buffer; assay type: physicochemical
hGPR4-SmBiT = biological target: T2, hGPR4-SmBiT (Homo sapiens, UniProt P46093); assay: Nano-BiT target engagement, LgBiT-mGs recruitment to hGPR4-SmBiT; assay type: cell-based; conditions: 10 μM
T2 construct: expressed in transfected cells; host or cells: Expi293F (Gibco), transient transfection
T2 sequence (P46093 whole entry): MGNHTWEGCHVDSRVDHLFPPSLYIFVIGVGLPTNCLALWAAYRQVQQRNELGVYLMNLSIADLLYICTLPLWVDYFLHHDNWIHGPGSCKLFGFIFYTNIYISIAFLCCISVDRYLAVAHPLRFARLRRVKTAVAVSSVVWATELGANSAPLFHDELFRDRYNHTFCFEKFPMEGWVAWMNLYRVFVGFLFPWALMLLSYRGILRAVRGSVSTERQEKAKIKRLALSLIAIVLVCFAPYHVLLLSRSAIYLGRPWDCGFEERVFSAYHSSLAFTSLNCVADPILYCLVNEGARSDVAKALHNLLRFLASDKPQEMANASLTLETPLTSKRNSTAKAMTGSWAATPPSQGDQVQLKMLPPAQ
Procedure: (§2) Target engagement was measured in Expi293F (Gibco, 100044202) cells using the Nano-Glo Live Cell Assay System (Promega, N2011). Nano-BiT plasmids were cloned from GPR65-, GPR4-, and GPR68-Tango plasmids. GPR65-Tango (Addgene plasmid # 66370; http://n2t.net/addgene:66370; RRID:Addgene_66370), GPR4-Tango (Addgene plasmid # 66358; http://n2t.net/addgene:66358; RRID:Addgene_66358), and GPR68-Tango (Addgene plasmid # 66371; http://n2t.net/addgene:66371; RRID:Addgene_66371) were gifts from Bryan Roth. Expi293F cells were transfected 1 day before kinetics with 500 ng of each plasmid using ExpiFectamine 293 Transfection Kit (Gibco, A14525). After 24 hours, cells were collected, washed, and resuspended in room temperature 0.1% PBS-BSA, adjusted to pH 7.4 using 1 M NaOH. Cells were transferred to white opaque 96-well microplates (100 μl per well, PerkinElmer, 6005290), followed by addition of the Nano-Glo Live Cell Reagent (25 μl per well). Baseline luminescence was measured for 10 cycles (1 cycle = 90 s) before adding compounds. All luminescence measurements were made on BMG Labtech PHERAstar FSX. Data analysis was performed using GraphPad Prism.

hGPR65-SmBiT = biological target: T3, hGPR65-SmBiT (Homo sapiens, UniProt Q8IYL9); assay: Nano-BiT target engagement, LgBiT-mGs recruitment to hGPR65-SmBiT in Expi293F cells; assay type: cell-based; conditions: 10 μM; for activity after HCl versus water, hGPR65: HCl or H2O at cycle 10
T3 construct: expressed in transfected cells; host or cells: Expi293F (Gibco), transient transfection
T3 sequence (Q8IYL9 whole entry): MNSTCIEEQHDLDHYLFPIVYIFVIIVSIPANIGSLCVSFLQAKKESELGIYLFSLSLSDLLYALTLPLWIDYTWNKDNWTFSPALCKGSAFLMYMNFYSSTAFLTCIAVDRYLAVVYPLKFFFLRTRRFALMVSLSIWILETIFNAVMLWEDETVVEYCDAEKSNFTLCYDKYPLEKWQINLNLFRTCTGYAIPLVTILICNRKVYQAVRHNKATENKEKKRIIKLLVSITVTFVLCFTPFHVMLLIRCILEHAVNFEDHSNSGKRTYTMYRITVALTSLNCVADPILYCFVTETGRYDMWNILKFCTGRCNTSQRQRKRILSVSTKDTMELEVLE
Procedure: as §2

mGPR65-SmBiT = biological target: T4, mGPR65-SmBiT (Mus musculus, UniProt Q61038); assay: Nano-BiT target engagement, LgBiT-mGs recruitment to mGPR65-SmBiT; assay type: cell-based; conditions: 10 μM; for activity after HCl versus water, mGPR65: HCl or H2O at cycle 10
T4 construct: expressed in transfected cells; host or cells: Expi293F (Gibco), transient transfection
T4 sequence (Q61038 whole entry): as the sequence (Q61038 whole entry) above
Procedure: as §2

Lipophilicity (logD) = assay type: physicochemical
hGPR65 = biological target: T5, hGPR65 (Homo sapiens, UniProt Q8IYL9); assay: cAMP detection in HeLa expression cell line, hGPR65; assay type: cell-based; conditions: for activity for hGPR65 among prioritized molecules: 1.56 μM; for activity for hGPR65 among prioritized molecules / cAMP activity, hGPR65: pH 7.2; for Emax: HeLa, read-out: hGPR Max Activity %
T5 construct: expressed in transfected cells; host or cells: HeLa (ATCC CCL-2), lentiviral transduction, pLX317
T5 sequence (Q8IYL9 whole entry): as the sequence (Q8IYL9 whole entry) above
Outline: as §1

human GPR4 (hGPR4) = biological target: T6, human GPR4 (hGPR4) (Homo sapiens, UniProt P46093); assay: cAMP detection in HeLa expression cell line, hGPR4; assay type: cell-based; conditions: GPR4 EC50 (uM); pH 7.2, 30 min
T6 construct: expressed in transfected cells; host or cells: HeLa (ATCC CCL-2), lentiviral transduction, pLX317
T6 sequence (P46093 whole entry): as the sequence (P46093 whole entry) above
Procedure: HeLa stable expression cell lines were produced by lentiviral transduction. Briefly, lentiviral plasmids for each GPCR with a C-terminal V5 Tag ([…]) were made in a pLX317 backbone using competent Escherichia coli (New England Biolabs, C3050H). Lenti-X 293 T (Takara, 632810) cells were transfected with the lentiviral plasmids to produce virus. Low-passage HeLa cells (American Type Culture Collection, CCL-2) were then transduced with lentivirus. After 48 hours, HeLa cells were cultured under selection with puromycin (3 μg/ml) and allowed to recover and expand before storing stocks in liquid nitrogen.
cAMP was measured in cells using the Lance Ultra cAMP Kit. HeLa cells were cultured under puromycin (3 μg/ml) selection. One day before the experiment, cells were seeded in T75 flasks and allowed to adhere overnight. On the day of the experiment, cells were washed twice with Dulbecco’s PBS and lifted using prewarmed 1× versene solution (Gibco, 15040066). Cells were counted in HBSS (Gibco, 14025092) and then resuspended in stimulation buffer prepared according to the manufacturer’s instructions and adjusted to pH 7.2 using 1 M sodium hydroxide. Cells were added to the plate at a density of 1500 cells per well in white opaque 384-well assay ready microplates containing 100 nl of 10 mM compound in DMSO. Cells were stimulated for 30 min at RT, then lysed and incubated with detection reagents for 1 hour in the dark at RT. Plates were read on BMG Labtech PHERAstar FSX (excitation, 337 nm; emission, 620 and 665 nm). Data analysis was performed using GraphPad Prism.

hGPR65 I231L-SmBiT = biological target: T7, hGPR65 I231L-SmBiT (Homo sapiens, UniProt Q8IYL9, I231L); assay: Nano-BiT target engagement, LgBiT-mGs recruitment to hGPR65 I231L-SmBiT; assay type: cell-based; conditions: 10 μM
T7 construct: expressed in transfected cells; host or cells: Expi293F (Gibco), transient transfection
T7 sequence (Q8IYL9 whole entry I231L): as the sequence (Q8IYL9 whole entry) above, with I231L counted along it
Procedure: as §2

[2] = tested on: WT HeLa cells expressing hGPR65; assay: Cytotoxicity assay (CellTiter-Glo, 72 hours); assay type: cell-based, human
Procedure: WT HeLa cells expressing hGPR65 were seeded at 2000 cells per well in 384-well plates. Compounds were tested in 10-point dose, starting at 50 μM. Cells were incubated with compounds for 72 hours at 37°C, 5% CO2. Cytotoxicity was measured using CellTiter-Glo Luminescent Cell Viability Assay (Promega, G7572) according to the manufacturer’s protocol. Luminescence measurements were made on BMG Labtech PHERAstar FSX. Data analysis was performed using GraphPad Prism.

[3] = Comment on solubility in SAR table; assay type: physicochemical
Description: Supplement sciadv.adn2339_data_s1_to_s4.zip/sciadv.adn2339_data_s2.xlsx, sheet "SAR cAMP Assay"

[4] = tested on: GFP-expressing HeLa cells; assay: cAMP detection in HeLa expression cell line, GFP control; assay type: cell-based, human
Outline: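 TR-FRET cAMP read-out (Lance Ultra; ex 337 nm, em 620 and 665 nm) after 1 h detection in the dark, following a 30 min RT stimulation of 1500 cells per well in pH 7.2 stimulation buffer with compound supplied as 10 mM DMSO stock. Cells: lentivirally transduced HeLa lines carrying V5-tagged GPCR or GFP, kept under 3 μg/ml puromycin.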

[5] = 2nd mGPR column pair, relative to 100uM forskolin (100%) and DMSO (0%), NA = no activity
[6] = relative to 100uM forskolin (100%) and DMSO (0%), NA = no activity
[7] = mGPR EC50 (uM), 2nd mGPR column pair, NA = no activity
[8] = mGPR EC50 (uM), first pair of columns, pH 7.2, 30 min
[9] = mGPR EC50 (uM), second pair of columns, pH 7.2, 30 min
[10] = mGPR EC50 (uM), NA = no activity
[11] = pH 7.4, pH7.4, read-out: LogD (pH7.4)
[12] = 1st hGPR column pair, relative to 100uM forskolin (100%) and DMSO (0%), NA = no activity
[13] = 2nd hGPR column pair, relative to 100uM forskolin (100%) and DMSO (0%), NA = no activity
[14] = hGPR EC50 (uM), NA = no activity
[15] = second pair, relative to 100uM forskolin (100%) and DMSO (0%)
[16] = third pair, relative to 100uM forskolin (100%) and DMSO (0%)

Cc1ccc(NC(=O)c2cnn3c(O)cc(-c4ccc(COC(C)C)c(Cl)c4)nc23)cc1 [BRD5059, O=C(NC1=CC=C(C)C=C1)C2=C3N(N=C2)C(O)=CC(C4=CC=C(COC(C)C)C(Cl)=C4)=N3]
activity for mGPR65 among prioritized molecules (mGPR65): highest activity
Emax (mGPR65; [5]): 42.2%
Emax (mGPR65; [6]): 51%
EC50 (mGPR65; [7]): 0.379 µM
EC50 (mGPR65; [8]): 0.591 µM
EC50 (mGPR65; [9]): 0.546 µM
EC50 (mGPR65; [10]): 0.505 µM
cAMP activity, mGPR65 (mGPR65): at least 40%
solubility ([1]; read-out: Solubility): < 1.56 µM
response in cells expressing hGPR4-SmBiT (hGPR4-SmBiT): failing to elicit responses
mGs recruitment / engagement of hGPR65 (hGPR65-SmBiT): showed engagement
activity after HCl versus water, hGPR65 (hGPR65-SmBiT): showed activity when preceded by the addition of HCl but not water
mGs recruitment / engagement of mGPR65 (mGPR65-SmBiT): showed engagement
activity after HCl versus water, mGPR65 (mGPR65-SmBiT): showed activity when preceded by the addition of HCl but not water
logD (Lipophilicity (logD); [11]): > 5.25
activity for hGPR65 among prioritized molecules (hGPR65): highest activity
Emax (hGPR65; [12]): 76%
Emax (hGPR65; [13]): 75.4%
EC50 (hGPR65; [14]): 0.577 µM
EC50 (hGPR65; hGPR EC50 (uM), pH 7.2, 30 min): 0.478 µM
EC50 (hGPR65; hGPR EC50, NA = no activity): 0.288 µM
EC50 (hGPR65; hGPR EC50, pH 7.2, 30 min): 0.618 µM
cAMP activity, hGPR65 (hGPR65): at least 40%
EC50 (human GPR4 (hGPR4)): 1.68 µM

Cc1ccc(NC(=O)c2cnn3c(O)cc(-c4ccc(COC(C)C)cc4)nc23)c(F)c1 [BRD5080, O=C(NC1=C(F)C=C(C)C=C1)C2=C3N(N=C2)C(O)=CC(C4=CC=C(COC(C)C)C=C4)=N3]
activity for mGPR65 among prioritized molecules (mGPR65): highest activity
cAMP response against mGPR65 among prioritized compounds (mGPR65; HeLa cells): highest cAMP response
Emax (mGPR65; [5]): 56%
Emax (mGPR65; [6]): 63.5%
EC50 (mGPR65; [7]): 0.371 µM
EC50 (mGPR65; [8]): 0.432 µM
EC50 (mGPR65; [9]): 0.653 µM
EC50 (mGPR65; [10]): 0.0578 µM
cAMP activity, mGPR65 (mGPR65): at least 40%
solubility ([1]; read-out: solubility in phosphate buffer): 13.6 µM (≈ 5.91 µg/mL)
response in cells expressing hGPR4-SmBiT (hGPR4-SmBiT): failing to elicit responses
mGs recruitment / engagement of hGPR65 (hGPR65-SmBiT): showed engagement
activity after HCl versus water, hGPR65 (hGPR65-SmBiT): showed activity when preceded by the addition of HCl but not water
G protein recruitment in cells expressing hGPR65 I231L (hGPR65 I231L-SmBiT): able to recruit G protein
mGs recruitment / engagement of mGPR65 (mGPR65-SmBiT): showed engagement
activity after HCl versus water, mGPR65 (mGPR65-SmBiT): showed activity when preceded by the addition of HCl but not water
logD (Lipophilicity (logD); [11]): 3.65
logD (Lipophilicity (logD); read-out: lipophilicity (logD)): 3.62
mode of action from pH-dependent cAMP production (hGPR65; 0 to 50 μM, pH range of 6.6 to 7.6): PAMs
activity for hGPR65 among prioritized molecules (hGPR65): highest activity
Emax (hGPR65; [12]): 80%
Emax (hGPR65; [13]): 70.4%
EC50 (hGPR65; [14]): 0.856 µM
EC50 (hGPR65; hGPR EC50 (uM), pH 7.2, 30 min): 1.41 µM
EC50 (hGPR65; hGPR EC50, NA = no activity): 1.66 µM
EC50 (hGPR65; hGPR EC50, pH 7.2, 30 min): 1.5 µM
cAMP activity, hGPR65 (hGPR65): at least 40%
cell viability ([2]; 50 μM, 72 hours): slight decrease in cell viability
cytotoxicity ([2]; 72-hour incubation, 0-50 μM): not cytotoxic

Cc1ccc(NC(=O)c2cnn3c(O)cc(-c4cccc(-c5ccccc5)c4)nc23)cc1 [BRD8101]
Emax (mGPR65; [15]): 73.1%
EC50 (mGPR65; SAR cAMP assay, second EC50/Max pair of mGPR columns, read-out: mGPR EC50): 0.566 µM
EC50 (mGPR65; SAR cAMP assay, third EC50/Max pair of mGPR columns, read-out: mGPR EC50): 0.0897 µM
mGPR Max Activity (mGPR65; [16]): 82.45%
Comments (solubility) [3]: Poor solubility.
EC50 ([4]; Homo sapiens, HeLa, SAR cAMP assay, third EC50/Max pair of GFP control columns): 3.2 µM
GFP Max Activity [4, 16]: 2.825%
Emax (hGPR65; [15]): 7.53%
EC50 (hGPR65; SAR cAMP assay, second EC50/Max pair of hGPR columns, read-out: hGPR EC50): 9.64 µM
EC50 (hGPR65; SAR cAMP assay, third EC50/Max pair of hGPR columns, read-out: hGPR EC50): 13.6 µM
hGPR Max Activity (hGPR65; [16]): 28.01%

— article PMC11259170, “Small-molecule probe for IBD risk variant GPR65 I231L alters cytokine signaling networks through positive allosteric modulation” (Science Advances, 2024)
